For experiment [1], the target named is T1, human CB1 receptor (Homo sapiens, UniProt P21554).
T1 construct: expressed in transfected cells; host or cells: HEK293
In words: bioSensAll β-arrestin2 plasma membrane translocation (+GRK2) BRET biosensor assay in HEK293 cells transfected with hCB1; test compound added before EC75-80 of agonist CP55,940 (100 nM). It is filed as cell-based. To be noted: βArrestin2 (+GRK2) BRET biosensor, vs CP55,940 100 nM (EC75-80), read-out: CB1 wt βarr2 IC50. In outline:
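HEK293 cells co-transfected with hCB1 and β-arrestin2 PM-translocation BRET biosensor (+GRK2); 48 h post-transfection in HBSS, test compound (0–600 nM, 12 points) added 3–5 min before CP55,940 at 100 nM (EC75-80). Overnight incubation at 37 °C; BRET (515/400 nm) read after 2 µM e-coelenterazine Prolume Purple, standardized to controls.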
A general note: In BRET a luciferase serves as donor, and the signal depends on an acceptor being close.

The target in experiment [2] is T1, human CB1 receptor. In words: bioSensAll GAPL-Gi2 BRET biosensor assay in HEK293 cells transfected with hCB1; test compound added before EC75-80 of agonist CP55,940 (0.1 nM). It is filed as cell-based. To be noted: vs CP55,940 0.1 nM (EC75-80), read-out: CB1 wt Gi2 IC50. In outline: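 Test compounds at 12 doses up to 600 nM preceded a 0.1 nM CP55,940 challenge in hCB1/GAPL-Gi2 HEK293 cells. After overnight 37° C incubation, methoxy e-coelenterazine (2 µM final) was added and the 515/400 nm BRET ratio normalized to positive and negative controls.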

In patent publication US20250333418A1, “PURINE COMPOUNDS, COMPOSITIONS COMPRISING THEM AND USES THEREOF” (Novo Nordisk A/S, priority 2022, published 2025) one finds IC50 data, which are given here for twelve compounds.

T1 sequence (P21554 whole entry): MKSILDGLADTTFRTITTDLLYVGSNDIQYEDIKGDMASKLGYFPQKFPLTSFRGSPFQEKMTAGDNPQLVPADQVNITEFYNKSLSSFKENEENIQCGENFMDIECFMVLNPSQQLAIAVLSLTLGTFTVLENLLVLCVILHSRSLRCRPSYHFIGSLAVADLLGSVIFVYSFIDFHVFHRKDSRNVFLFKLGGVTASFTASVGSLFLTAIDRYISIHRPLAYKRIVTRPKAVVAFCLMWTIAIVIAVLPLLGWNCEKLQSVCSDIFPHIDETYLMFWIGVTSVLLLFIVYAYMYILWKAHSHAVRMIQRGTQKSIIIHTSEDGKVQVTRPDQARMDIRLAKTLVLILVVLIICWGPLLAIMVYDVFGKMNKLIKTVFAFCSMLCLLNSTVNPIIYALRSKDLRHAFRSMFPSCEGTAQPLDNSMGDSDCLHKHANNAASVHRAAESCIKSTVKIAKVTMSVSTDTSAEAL

`CN(CCO)c1nc(N2CC3(COC3)C2)c2nc(-c3ccccc3Cl)n(-c3ccc(Cl)cc3)c2n1` [Compound 188]: the values for the IC50 at human CB1 receptor [1] and on human CB1 receptor [2] were 1.84 nM and 0.31 nM, respectively.

In the case of `CN1CCC[C@H]1COc1nc(N2CCC(C)(C(N)=O)CC2)c2nc(-c3ccccc3Cl)n(-c3ccc(Cl)cc3)c2n1` [Compound 117, 1-[8-(2-chlorophenyl)-9-(4-chlorophenyl)-2-[[(2S)-1-methylpyrrolidin-2-yl]methoxy]purin-6-yl]-4-methyl-piperidine-4-carboxamide], the IC50 (usually the concentration that inhibits the measured activity by half) at human CB1 receptor [1] was found to be 3.76 nM; at human CB1 receptor [2], 1.64 nM.

Take `CC1(C(N)=O)CCN(c2nc(N3CC[C@@](C)(O)C3)nc3c2nc(-c2ccccc2Cl)n3-c2ccc(Cl)cc2)CC1` [Compound 223]: the IC50 at human CB1 receptor [1] came out at 2.8 nM; on human CB1 receptor [2] it was 0.916 nM.

Take `OC[C@@H]1CCCN1c1nc(N2CCC(C(F)(F)F)CC2)c2nc(-c3ccccc3Cl)n(-c3ccc(Cl)cc3)c2n1` [Compound 35, [(2S)-1-[8-(2-chlorophenyl)-9-(4-chlorophenyl)-6-[4-(trifluoromethyl)-1-piperidyl]purin-2-yl]pyrrolidin-2-yl]methanol]: the IC50 at human CB1 receptor [1] was determined as 3.3 nM; at human CB1 receptor [2] it was 0.687 nM.

As for `C[C@H]1COCCN1c1nc(OCC(C)(C)O)nc2c1nc(-c1ccccc1Cl)n2-c1ccc(Cl)cc1` [Compound 211], the IC50 at human CB1 receptor [1] is 6.86 nM; on human CB1 receptor [2], 0.943 nM.

`CN(CCO)c1nc(N2CCC(C)(C(N)=O)CC2)c2nc(-c3ccc(C#N)nc3)n(-c3ccc(Cl)cc3)c2n1` [Compound 65, 1-[9-(4-chlorophenyl)-8-(6-cyano-3-pyridyl)-2-[2-hydroxyethyl(methyl)amino]purin-6-yl]-4-methyl-piperidine-4-carboxamide]: the IC50 is 1.7 nM at human CB1 receptor [1] and 0.534 nM at human CB1 receptor [2].

On to `CC1(C(N)=O)CCN(c2nc(OC3CCCOC3)nc3c2nc(-c2ccccc2Cl)n3-c2ccc(Cl)cc2)CC1` (stereo not drawn) [Compound 17, 1-[8-(2-chlorophenyl)-9-(4-chlorophenyl)-2-tetrahydropyran-3-yloxy-purin-6-yl]-4-methyl-piperidine-4-carboxamide], for which the IC50 is 2.39 nM at human CB1 receptor [1] and 0.617 nM on human CB1 receptor [2].

With `CC(=O)NC(=N)Nc1nc(N2CCC(C(F)(F)F)CC2)c2nc(-c3ccccc3Cl)n(-c3ccc(Cl)cc3)c2n1` [Compound 34, N—[N-[8-(2-chlorophenyl)-9-(4-chlorophenyl)-6-[4-(trifluoromethyl)-1-piperidyl]purin-2-yl]carbamimidoyl]acetamide], the 50% inhibitory concentration (IC50) on human CB1 receptor [1] turned out to be 17.6 nM; at human CB1 receptor [2] it was 6.62 nM.

Consider `CC1(C(N)=O)CCN(c2nc(OCCO)nc3c2nc(-c2ccccc2Cl)n3-c2ccc(Cl)cc2)CC1` [Compound 78, 1-[8-(2-chlorophenyl)-9-(4-chlorophenyl)-2-(2-hydroxyethoxy)purin-6-yl]-4-methyl-piperidine-4-carboxamide], for which the IC50 came out at 5.68 nM at human CB1 receptor [1] and 0.995 nM on human CB1 receptor [2].

On to `CCNC1(C(N)=O)CCN(c2nc(N)nc3c2nc(-c2ccccc2Cl)n3-c2ccc(Cl)cc2)CC1` [Compound 149], for which the IC50 was above 5000 nM on human CB1 receptor [1] and 8.93 nM on human CB1 receptor [2].

As to `OC[C@@H]1CCCN1c1nc(N2CCC(C(F)(F)F)CC2)c2nc(-c3ccccc3Cl)n(-c3ccc(Cl)cc3)c2n1` [Compound 162, [(2S)-1-[8-(2-chlorophenyl)-9-(4-chlorophenyl)-6-[4-(trifluoromethyl)-1-piperidyl]purin-2-yl]pyrrolidin-2-yl]methanol], the values for the IC50 at human CB1 receptor [1] and at human CB1 receptor [2] were 1.83 nM and 1.3 nM, respectively.

With `CC1(C(N)=O)CCN(c2nc(OCCCO)nc3c2nc(-c2ccccc2Cl)n3-c2ccc(Cl)cc2)CC1` [Compound 6, 1-[8-(2-chlorophenyl)-9-(4-chlorophenyl)-2-(3-hydroxypropoxy)purin-6-yl]-4-methyl-piperidine-4-carboxamide], the IC50 on human CB1 receptor [1] amounted to 4.78 nM; at human CB1 receptor [2] it was 0.861 nM.
